Reference: publication PMC10864275, “Binding kinetics drive G protein subtype selectivity at the β1-adrenergic receptor” (Nature Communications, 2024)

Target: T1, β1AR-E signalling via Gs (Meleagris gallopavo, UniProt P07700, C116L/C358A/DEL244-271/F327A/F338A/M179L/M281A/M44L/M48L/R68S)
T1 construct: expressed in transfected cells; host or cells: HEK293T
Format: cell-based, turkey
Conditions: G protein not given
Excerpt: We next assessed G protein coupling using the TRUPATH BRET2 biosensor assay[46] (Supplementary Fig. 2c) expressed in HEK293T cells, allowing examination of signalling via the canonical coupling partner Gs. […] Therefore, the TRUPATH and ligand binding assays confirmed that reversal of the thermostabilising mutation increased receptor activity without impacting ligand affinity. Also, although less efficacious, the thermostabilised β1AR-W construct still retained functional G protein coupling.
For Gq, a constitutively active mutated version (R183Q) was used to increase the sensitivity for detection of Gq activation. After 24 h, cells were harvested and seeded onto PLL-coated white 96-well plates (Greiner Bio-One) at a density of 50,000 cells per well. […] The plate was then incubated for 10 min at room temperature in the dark.

T1 sequence (P07700 other isoform, or with tags, fused parts or gaps with the stated changes): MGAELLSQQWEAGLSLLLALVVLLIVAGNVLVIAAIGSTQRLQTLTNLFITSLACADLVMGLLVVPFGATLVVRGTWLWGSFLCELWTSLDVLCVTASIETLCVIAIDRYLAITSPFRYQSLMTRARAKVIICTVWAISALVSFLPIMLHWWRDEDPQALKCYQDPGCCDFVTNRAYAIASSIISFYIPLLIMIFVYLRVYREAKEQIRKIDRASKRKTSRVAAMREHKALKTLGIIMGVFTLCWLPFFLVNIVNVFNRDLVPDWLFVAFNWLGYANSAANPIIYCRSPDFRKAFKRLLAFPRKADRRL

In the case of `CC(C)(C)NCC(O)c1ccc(O)c(CO)c1` (centres unmarked) [Sal., salbutamol], the “potency in TRUPATH assays relative to isoprenaline” value is reported as “decreased potency”.

In the case of `O=C(NCCNCC(O)COc1ccc(O)cc1)N1CCOCC1` (centres unmarked) [Xam., xamoterol], the “potency in TRUPATH assays relative to isoprenaline” value is reported as “decreased potency”.
